# Laboratory results: patent publication US7138361B2, “Herbicidal heterocycles” (E. I. du Pont de Nemours and Company, priority 2000, dated 2006)
# Tests used:
# Assay type in all cases: in vivo
# [1] = test system: cocklebur (Xanthium strumarium); experiment: Test B preemergence
# Method in brief: (§1)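 Post-treatment, species sat 13–15 days under greenhouse conditions before visual scoring against controls, 0 (no effect) through 100 (complete control). Application preemergence to sown seeds or postemergence at 1- to 4-leaf stage, using a non-phytotoxic solvent/surfactant formulation.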
# rice (Oryza saliva) [2] = experiment: Test B preemergence
# Method in brief: as §1
# [3] = test system: pigweed (Amaranthus retroflexus); experiment: Test B preemergence
# Method in brief: as §1
# [4] = test system: lambsquarters (Chenopodium album); experiment: Test B preemergence
# Method in brief: as §1
# [5] = test system: Surinam grass (Brachiaria decumbens); experiment: Test B preemergence
# Method in brief: as §1
# corn (Zea mays) [6] = experiment: Test B preemergence
# Method in brief: as §1
# [7] = test system: barnyardgrass (Echinochloa crus-galli); experiment: Test B preemergence
# Method in brief: as §1
# [8] = test system: velvetleaf (Abutilon theophrasti); experiment: Test B preemergence
# Method in brief: as §1
# [9] = test system: giant foxtail (Setaria faberii); experiment: Test B preemergence
# Method in brief: as §1
# [10] = test system: crabgrass (Digitaria sanguinalis); experiment: Test B preemergence
# Method in brief: as §1
# [11] = test system: morning glory (Ipomoea hederacea); experiment: Test B preemergence
# Method in brief: as §1
# [12] = test system: cocklebur (Xanthium strumarium); experiment: Test B postemergence
# Method in brief: as §1
# [13] = test system: blackgrass (Alopecurus myosuroides); experiment: Test B postemergence
# Method in brief: as §1
# [14] = test system: pigweed (Amaranthus retroflexus); experiment: Test B postemergence
# Method in brief: as §1
# [15] = test system: lambsquarters (Chenopodium album); experiment: Test B postemergence
# Method in brief: as §1
# [16] = test system: wheat (Triticum aestivum); experiment: Test B postemergence
# Method in brief: as §1
# [17] = test system: Surinam grass (Brachiaria decumbens); experiment: Test B postemergence
# Method in brief: as §1
# corn (Zea mays) [18] = experiment: Test B postemergence
# Method in brief: as §1
# [19] = test system: barnyardgrass (Echinochloa crus-galli); experiment: Test B postemergence
# Method in brief: as §1
# [20] = test system: velvetleaf (Abutilon theophrasti); experiment: Test B postemergence
# Method in brief: as §1
# [21] = test system: giant foxtail (Setaria faberii); experiment: Test B postemergence
# Method in brief: as §1
# [22] = test system: crabgrass (Digitaria sanguinalis); experiment: Test B postemergence
# Method in brief: as §1
# wild oat (Avena fatua) = experiment: Test B postemergence
# Method in brief: as §1
# [23] = test system: morning glory (Ipomoea hederacea); experiment: Test B postemergence
# Method in brief: as §1
# [24] = test system: duck salad (Heteranthera limosa); experiment: Test C flooded paddy test; details: for Ducksalad plant response rating: Flooded Paddy, scale 0 to 100, 0 no effect, 100 complete control; for Plant response rating, Ducksalad: flooded paddy test, scale 0 to 100 (0 no effect, 100 complete control)
# Method in brief: (§2)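 Greenhouse-maintained for 12 to 14 days after treatment, the paddy plants (2-leaf stage at application) were scored visually against controls. A score of 0 denotes no effect and a score of 100 denotes complete control.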
# rice (Oryza saliva) [25] = experiment: Test C flooded paddy test; details: for Rice plant response rating: Flooded Paddy, scale 0 to 100, 0 no effect, 100 complete control; for Plant response rating, Rice: flooded paddy test, scale 0 to 100 (0 no effect, 100 complete control)
# Method in brief: as §2
# [26] = test system: smallflower flatsedge (Cyperus difformis); experiment: Test C flooded paddy test; details: for Flatsedge plant response rating: Flooded Paddy, scale 0 to 100, 0 no effect, 100 complete control; for Plant response rating, Flatsedge: flooded paddy test, scale 0 to 100 (0 no effect, 100 complete control)
# Method in brief: as §2
# [27] = test system: barnyardgrass (Echinochloa crus-galli); experiment: Test C flooded paddy test; details: for Barnyardgrass plant response rating: Flooded Paddy, scale 0 to 100, 0 no effect, 100 complete control; for Plant response rating, Barnyardgrass: flooded paddy test, scale 0 to 100 (0 no effect, 100 complete control)
# Method in brief: as §2
# [28] = Preemergence, Rate 500 g/ha, scale 0 to 100, 0 no effect, 100 complete control
# [29] = preemergence, Rate 125 g/ha, scale of 0 to 100 where 0 is no effect and 100 is complete control, 13 to 15 days
# [30] = Rate 125 g/ha, scale 0 to 100, 0 no effect, 100 complete control
# [31] = Rate 500 g/ha, scale 0 to 100, 0 is no effect, 100 is complete control, 13 to 15 days
# [32] = preemergence, Rate 62 g/ha, scale of 0 to 100 where 0 is no effect and 100 is complete control, 13 to 15 days
# [33] = preemergence, Rate 250 g/ha, scale 0 to 100, 0 no effect, 100 complete control
# [34] = Rate 62 g/ha, scale 0 to 100, 0 no effect, 100 complete control
# [35] = Rate 250 g/ha, scale 0 (no effect) to 100 (complete control), 13 to 15 days
smiles,measurement,setting,value
CCCOC(=O)c1cccc(N2CCC(n3ccc(C(C)(C)C)n3)C2=O)c1 (centres unmarked) [Compound 123],"Plant response rating, Cocklebur",[1]; [28],0
same,"Plant response rating, Cocklebur",[1]; [29],0
same,"Plant response rating, Rice",rice (Oryza saliva) [2]; [28],0
same,"Plant response rating, Rice",rice (Oryza saliva) [2]; [29],0
same,"Plant response rating, Pigweed",[3]; [28],70
same,"Plant response rating, Pigweed",[3]; [29],0
same,"Plant response rating, Lambsquarters",[4]; [28],60
same,"Plant response rating, Lambsquarters",[4]; [29],0
same,"Plant response rating, Surinam grass",[5]; [28],0
same,"Plant response rating, Surinam grass",[5]; [29],0
same,"Plant response rating, Corn",corn (Zea mays) [6]; [28],0
same,"Plant response rating, Corn",corn (Zea mays) [6]; [29],0
same,"Plant response rating, Barnyardgrass",[7]; [28],0
same,"Plant response rating, Barnyardgrass",[7]; [29],0
same,"Plant response rating, Velvetleaf",[8]; [28],0
same,"Plant response rating, Velvetleaf",[8]; [29],0
same,"Plant response rating, Foxtail, Giant",[9]; [28],0
same,"Plant response rating, Foxtail, Giant",[9]; [29],0
same,"Plant response rating, Crabgrass",[10]; [28],60
same,"Plant response rating, Crabgrass",[10]; [29],0
same,"Plant response rating, Morningglory",[11]; [28],0
same,"Plant response rating, Morningglory",[11]; [29],0
same,"Plant response rating, Cocklebur",[12]; [30],30
same,"Plant response rating, Cocklebur",[12]; [31],80
same,"Plant response rating, Blackgrass",[13]; [31],0
same,"Plant response rating, Pigweed",[14]; [30],0
same,"Plant response rating, Lambsquarters",[15]; [30],0
same,"Plant response rating, Wheat",[16]; [30],0
same,"Plant response rating, Surinam grass",[17]; [30],0
same,"Plant response rating, Surinam grass",[17]; [31],0
same,"Plant response rating, Corn",corn (Zea mays) [18]; [30],0
same,"Plant response rating, Corn",corn (Zea mays) [18]; [31],0
same,"Plant response rating, Barnyardgrass",[19]; [30],0
same,"Plant response rating, Barnyardgrass",[19]; [31],0
same,"Plant response rating, Velvetleaf",[20]; [30],0
same,"Plant response rating, Foxtail, Giant",[21]; [30],0
same,"Plant response rating, Crabgrass",[22]; [30],0
same,"Plant response rating, Wild Oat",wild oat (Avena fatua); [30],0
same,"Plant response rating, Morningglory",[23]; [30],0
same,Ducksalad plant response rating,[24]; Rate 250 g/ha,60
same,Ducksalad plant response rating,[24]; Rate 500 g/ha,70
same,"Plant response rating, Ducksalad",[24]; Rate 62 g/ha,20
same,"Plant response rating, Ducksalad",[24]; Rate 125 g/ha,20
same,Rice plant response rating,rice (Oryza saliva) [25]; Rate 250 g/ha,0
same,Rice plant response rating,rice (Oryza saliva) [25]; Rate 500 g/ha,0
same,"Plant response rating, Rice",rice (Oryza saliva) [25]; Rate 62 g/ha,0
same,"Plant response rating, Rice",rice (Oryza saliva) [25]; Rate 125 g/ha,0
same,Flatsedge plant response rating,[26]; Rate 250 g/ha,50
same,Flatsedge plant response rating,[26]; Rate 500 g/ha,90
same,"Plant response rating, Flatsedge",[26]; Rate 62 g/ha,30
same,"Plant response rating, Flatsedge",[26]; Rate 125 g/ha,30
same,Barnyardgrass plant response rating,[27]; Rate 250 g/ha,0
same,Barnyardgrass plant response rating,[27]; Rate 500 g/ha,0
same,"Plant response rating, Barnyardgrass",[27]; Rate 62 g/ha,0
same,"Plant response rating, Barnyardgrass",[27]; Rate 125 g/ha,0
CCOc1cccc(N2CCC(n3ccc(C(CC)CC)n3)C2=O)c1 (centres unmarked) [Compound 125],"Plant response rating, Cocklebur",[1]; [32],0
same,"Plant response rating, Cocklebur",[1]; [33],50
same,"Plant response rating, Rice",rice (Oryza saliva) [2]; [32],50
same,"Plant response rating, Rice",rice (Oryza saliva) [2]; [33],100
same,"Plant response rating, Pigweed",[3]; [32],100
same,"Plant response rating, Pigweed",[3]; [33],100
same,"Plant response rating, Lambsquarters",[4]; [32],100
same,"Plant response rating, Lambsquarters",[4]; [33],100
same,"Plant response rating, Surinam grass",[5]; [32],70
same,"Plant response rating, Surinam grass",[5]; [33],100
same,"Plant response rating, Corn",corn (Zea mays) [6]; [32],20
same,"Plant response rating, Corn",corn (Zea mays) [6]; [33],40
same,"Plant response rating, Barnyardgrass",[7]; [32],100
same,"Plant response rating, Barnyardgrass",[7]; [33],100
same,"Plant response rating, Velvetleaf",[8]; [32],0
same,"Plant response rating, Velvetleaf",[8]; [33],40
same,"Plant response rating, Foxtail, Giant",[9]; [32],100
same,"Plant response rating, Foxtail, Giant",[9]; [33],100
same,"Plant response rating, Crabgrass",[10]; [32],100
same,"Plant response rating, Crabgrass",[10]; [33],100
same,"Plant response rating, Morningglory",[11]; [32],50
same,"Plant response rating, Morningglory",[11]; [33],80
same,"Plant response rating, Cocklebur",[12]; [34],30
same,"Plant response rating, Cocklebur",[12]; [35],70
same,"Plant response rating, Blackgrass",[13]; [34],0
same,"Plant response rating, Blackgrass",[13]; [35],0
same,"Plant response rating, Pigweed",[14]; [34],30
same,"Plant response rating, Pigweed",[14]; [35],70
same,"Plant response rating, Lambsquarters",[15]; [34],100
same,"Plant response rating, Lambsquarters",[15]; [35],100
same,"Plant response rating, Wheat",[16]; [34],0
same,"Plant response rating, Wheat",[16]; [35],0
same,"Plant response rating, Surinam grass",[17]; [34],0
same,"Plant response rating, Surinam grass",[17]; [35],0
same,"Plant response rating, Corn",corn (Zea mays) [18]; [34],0
same,"Plant response rating, Corn",corn (Zea mays) [18]; [35],0
same,"Plant response rating, Barnyardgrass",[19]; [34],0
same,"Plant response rating, Barnyardgrass",[19]; [35],80
same,"Plant response rating, Velvetleaf",[20]; [34],0
same,"Plant response rating, Velvetleaf",[20]; [35],0
same,"Plant response rating, Foxtail, Giant",[21]; [34],0
same,"Plant response rating, Foxtail, Giant",[21]; [35],0
same,"Plant response rating, Crabgrass",[22]; [34],0
same,"Plant response rating, Crabgrass",[22]; [35],0
same,"Plant response rating, Wild Oat",wild oat (Avena fatua); [34],0
same,"Plant response rating, Wild Oat",wild oat (Avena fatua); [35],0
same,"Plant response rating, Morningglory",[23]; [34],50
same,"Plant response rating, Morningglory",[23]; [35],100
same,Ducksalad plant response rating,[24]; Rate 250 g/ha,100
same,Ducksalad plant response rating,[24]; Rate 500 g/ha,100
same,"Plant response rating, Ducksalad",[24]; Rate 62 g/ha,40
same,"Plant response rating, Ducksalad",[24]; Rate 125 g/ha,95
same,Rice plant response rating,rice (Oryza saliva) [25]; Rate 250 g/ha,40
same,Rice plant response rating,rice (Oryza saliva) [25]; Rate 500 g/ha,60
same,"Plant response rating, Rice",rice (Oryza saliva) [25]; Rate 62 g/ha,0
same,"Plant response rating, Rice",rice (Oryza saliva) [25]; Rate 125 g/ha,10
same,Flatsedge plant response rating,[26]; Rate 250 g/ha,100
same,Flatsedge plant response rating,[26]; Rate 500 g/ha,100
same,"Plant response rating, Flatsedge",[26]; Rate 62 g/ha,100
same,"Plant response rating, Flatsedge",[26]; Rate 125 g/ha,100
same,Barnyardgrass plant response rating,[27]; Rate 250 g/ha,100
same,Barnyardgrass plant response rating,[27]; Rate 500 g/ha,100
same,"Plant response rating, Barnyardgrass",[27]; Rate 62 g/ha,65
same,"Plant response rating, Barnyardgrass",[27]; Rate 125 g/ha,100
